Target: T1, human follicle-stimulating hormone receptor (FSHR) (Homo sapiens, UniProt P23945)
T1 construct: host or cells: CHO-K1
T1 sequence (P23945 18-695): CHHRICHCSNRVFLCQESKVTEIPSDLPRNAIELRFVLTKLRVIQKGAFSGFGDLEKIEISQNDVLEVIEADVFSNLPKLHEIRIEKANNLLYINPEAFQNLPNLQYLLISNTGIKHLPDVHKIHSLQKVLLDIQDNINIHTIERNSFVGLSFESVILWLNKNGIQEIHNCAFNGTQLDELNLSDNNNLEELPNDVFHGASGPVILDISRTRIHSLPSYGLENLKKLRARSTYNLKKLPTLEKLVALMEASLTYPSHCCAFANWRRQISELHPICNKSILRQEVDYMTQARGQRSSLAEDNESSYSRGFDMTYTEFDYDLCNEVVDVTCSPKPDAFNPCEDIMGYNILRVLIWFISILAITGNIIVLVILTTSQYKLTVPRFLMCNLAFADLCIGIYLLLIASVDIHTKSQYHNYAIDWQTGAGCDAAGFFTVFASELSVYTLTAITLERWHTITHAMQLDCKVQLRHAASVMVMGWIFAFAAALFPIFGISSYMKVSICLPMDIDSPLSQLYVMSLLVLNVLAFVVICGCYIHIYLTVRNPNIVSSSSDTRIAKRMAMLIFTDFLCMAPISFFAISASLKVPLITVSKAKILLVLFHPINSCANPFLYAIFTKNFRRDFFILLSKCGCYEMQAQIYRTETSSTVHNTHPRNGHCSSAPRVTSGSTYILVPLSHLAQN
Assay: Measurement of agonist cAMP production by activation of human FSHR
Format: cell-based
Details: CHO-K1 human FSHR cells, 30 minutes at 37° C., HTRF cAMP kit; read-out: hFSHR Agonist cAMP EC50
How it was run: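 cAMP output was measured by HTRF after 30 min at 37 °C agonist exposure (0–10,000 nM final) in stably FSHR-transfected CHO-K1 cells. Lysate cAMP was read off a standard curve and fitted to obtain half-maximal EC50.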

SMILES	EC50
COc1cc2c(cc1-c1cccc(NC(=O)CCOCCOCCOCCOCCNC(=O)[C@@H](CCC(=O)O)NC(=O)CN3CCN(CC(=O)O)CCN(CC(=O)O)CCN(CC(=O)O)CC3)c1)-c1c(c(C(=O)N3CCOCC3(C)C)nn1-c1cc(Cl)cc(Cl)c1)CO2 [Compound 27, (R)-2,2′,2″-(10-(4-(2-carboxyethyl)-21-((3-(1-(3,5-dichlorophenyl)-3-(3,3-dimethylmorpholine-4-carbonyl)-7-methoxy-1,4-dihydrochromeno|4,3-clpyrazol-8-yl)phenyl)amino)-2,5,21-trioxo-9,12,15,18-tetraoxa-3,6-diazahenicosyl)-1,4,7,10-tetraazacyclododecane-1,4,7-triyl)triacetic acid]	< 10 nM
COc1cc2c(cc1-c1cccc(NC(=O)CCOCCOCCOCCOCCNC(=O)CCC(C(=O)O)N3CCN(CC(=O)O)CCN(CC(=O)O)CCN(CC(=O)O)CC3)c1)-c1c(c(C(=O)N3CCOCC3(C)C)nn1-c1cc(Cl)cc(Cl)c1)CO2 (stereo not drawn) [Compound 28]	< 10 nM
COc1cc2c(cc1-c1cccc(NC(=O)CN3CCN(CC(=O)O)CCN(CC(=O)O)CCN(CC(=O)O)CC3)c1)-c1c(c(C(=O)N3CCOCC3(C)C)nn1-c1cc(Cl)cc(Cl)c1)CO2 [Compound 29, 2,2′,2″-(10-(2-((3-(1-(3,5-dichlorophenyl)-3-(3,3-dimethylmorpholine-4-carbonyl)-7-methoxy-1,4-dihydrochromeno|4,3-c|pyrazol-8-yl)phenyl)amino)-2-oxoethyl)-1,4,7,10-tetraazacyclododecane-1,4,7-triyl)triacetic acid]	> 100 nM
COc1cc2c(cc1-c1cccc(NC(=O)C[C@@H](NC(=O)CN3CCN(CC(=O)O)CCN(CC(=O)O)CCN(CC(=O)O)CC3)C(=O)O)c1)-c1c(c(C(=O)N3CCOCC3(C)C)nn1-c1cc(Cl)cc(Cl)c1)CO2 [Compound 30]	10 to 100 nM
COc1cc2c(cc1-c1cccc(NC(=O)CC[C@@H](NC(=O)CN3CCN(CC(=O)O)CCN(CC(=O)O)CCN(CC(=O)O)CC3)C(=O)O)c1)-c1c(c(C(=O)N3CCOCC3(C)C)nn1-c1cc(Cl)cc(Cl)c1)CO2 [Compound 31]	10 to 100 nM
COc1cc2c(cc1-c1cccc(NC(=O)CNC(=O)C[C@@H](NC(=O)CN3CCN(CC(=O)O)CCN(CC(=O)O)CCN(CC(=O)O)CC3)C(=O)O)c1)-c1c(c(C(=O)N3CCOCC3(C)C)nn1-c1cc(Cl)cc(Cl)c1)CO2 [Compound 32, (R)-2,2′,2″-(10-(2-((1-carboxy-3-((2-((3-(1-(3,5-dichlorophenyl)-3-(3,3-dimethylmorpholine-4-carbonyl)-7-methoxy-1,4-dihydrochromeno|4,3-clpyrazol-8-yl)phenyl)amino)-2-oxoethyl)amino)-3-oxopropyl)amino)-2-oxoethyl)-1,4,7,10-tetraazacyclododecane-1,4,7-triyl)triacetic acid]	10 to 100 nM
COc1cc2c(cc1-c1cccc(NC(=O)[C@H](CS(=O)(=O)O)NC(=O)CN3CCN(CC(=O)O)CCN(CC(=O)O)CCN(CC(=O)O)CC3)c1)-c1c(c(C(=O)N3CCOCC3(C)C)nn1-c1cc(Cl)cc(Cl)c1)CO2 [Compound 33, (R)-2,2′,2″-(10-(2-((1-((3-(1-(3,5-dichlorophenyl)-3-(3,3-dimethylmorpholine-4-carbonyl)-7-methoxy-1,4-dihydrochromeno|4,3-c|pyrazol-8-yl)phenyl)amino)-1-oxo-3-sulfopropan-2-yl)amino)-2-oxoethyl)-1,4,7,10-tetraazacyclododecane-1,4,7-triyl)triacetic acid]	> 100 nM
COc1cc2c(cc1-c1cccc(NC(=O)C3OC(CNC(=O)CN4CCN(CC(=O)O)CCN(CC(=O)O)CCN(CC(=O)O)CC4)C(O)C(O)C3O)c1)-c1c(c(C(=O)N3CCOCC3(C)C)nn1-c1cc(Cl)cc(Cl)c1)CO2 [Compound 34, 2,2′,2″-(10-(2-((((2S,3R,4R,5R,6S)-6-((3-(1-(3,5-dichlorophenyl)-3-(3,3dimethylmorpholine-4-carbonyl)-7-methoxy-1,4-dihydrochromeno|4,3-c]pyrazol-8-yl)phenyl)carbamoyl)-3,4,5-trihydroxytetrahydro-2H-pyran-2-yl)methyl)amino)-2-oxoethyl)-1,4,7,10-tetraazacyclododecane-1,4,7-triyl)triacetic acid]	10 to 100 nM
COc1cc2c(cc1-c1cccc(NC(=O)C(CNC(=O)CCNC(=O)CN3CCN(CC(=O)O)CCN(CC(=O)O)CCN(CC(=O)O)CC3)CNC(=O)CCNC(=O)CN3CCN(CC(=O)O)CCN(CC(=O)O)CCN(CC(=O)O)CC3)c1)-c1c(c(C(=O)N3CCOCC3(C)C)nn1-c1cc(Cl)cc(Cl)c1)CO2 [Compound 35]	> 100 nM
COc1cc2c(cc1-c1cccc(NC(=O)CCNC(=O)CN3CCC(NC(=O)CN4CCN(CC(=O)O)CCN(CC(=O)O)CCN(CC(=O)O)CC4)CC3)c1)-c1c(c(C(=O)N3CCOCC3(C)C)nn1-c1cc(Cl)cc(Cl)c1)CO2 [Compound 36, 2,2′,2″-(10-(2-((1-(2-((3-((3-(1-(3,5-dichlorophenyl)-3-(3,3dimethylmorpholine-4-carbonyl)-7-methoxy-1,4-dihydrochromeno|4,3-clpyrazol-8-yl)phenyl)amino)-3-oxopropyl)amino)-2-oxoethyl)piperidin-4-yl)amino)-2-oxoethyl)-1,4,7,10-tetraazacyclododecane-1,4,7-triyl)triacetic acid]	< 10 nM
COc1cc2c(cc1-c1cccc(NC(=O)CCNC(=O)[C@H](CS(=O)(=O)O)NC(=O)CN3CCN(CC(=O)O)CCN(CC(=O)O)CCN(CC(=O)O)CC3)c1)-c1c(c(C(=O)N3CCOCC3(C)C)nn1-c1cc(Cl)cc(Cl)c1)CO2 [Compound 37, (R)-2,2′,2″-(10-(2-((1-((3-((3-(1-(3,5-dichlorophenyl)-3-(3,3dimethylmorpholine-4-carbonyl)-7-methoxy-1,4-dihydrochromeno|4,3-clpyrazol-8-yl)phenyl)amino)-3-oxopropyl)amino)-1-oxo-3-sulfopropan-2-yl)amino)-2-oxoethyl)-1,4,7,10-tetraazacyclododecane-1,4,7-triyl)triacetic acid]	10 to 100 nM
COc1cc2c(cc1-c1cccc(NC(=O)C[C@H](O)C[C@H](O)CCNC(=O)CN3CCN(CC(=O)O)CCN(CC(=O)O)CCN(CC(=O)O)CC3)c1)-c1c(c(C(=O)N3CCOCC3(C)C)nn1-c1cc(Cl)cc(Cl)c1)CO2 [Compound 38]	10 to 100 nM
COc1cc2c(cc1-c1cccc(/C(C)=N/OCCNC(=O)CN3CCN(CC(=O)O)CCN(CC(=O)O)CCN(CC(=O)O)CC3)c1)-c1c(c(C(=O)N3CCOCC3(C)C)nn1-c1cc(Cl)cc(Cl)c1)CO2 [Compound 39]	10 to 100 nM
COc1cc2c(cc1-c1cccc(/C(C)=N/OCCNC(=O)CN3CCN(C(=O)CN4CCN(CC(=O)O)CCN(CC(=O)O)CCN(CC(=O)O)CC4)CC3)c1)-c1c(c(C(=O)N3CCOCC3(C)C)nn1-c1cc(Cl)cc(Cl)c1)CO2 [Compound 40]	10 to 100 nM
COc1cc2c(cc1-c1cccc(/C(C)=N/OCCNC(=O)COCCOCCNC(=O)CN3CCN(CC(=O)O)CCN(CC(=O)O)CCN(CC(=O)O)CC3)c1)-c1c(c(C(=O)N3CCOCC3(C)C)nn1-c1cc(Cl)cc(Cl)c1)CO2 [Compound 41, (E)-2,2′,2″-(10-(1-(3-(1-(3,5-dichlorophenyl)-3-(3,3-dimethylmorpholine-4carbonyl)-7-methoxy-1,4-dihydrochromeno|4,3-c|pyrazol-8-yl)phenyl)-7,16-dioxo-3,9,12-trioxa-2,6,15-triazaheptadec-1-en-17-yl)-1,4,7,10-tetraazacyclododecane-1,4,7-triyl)triacetic acid]	10 to 100 nM
COc1cc2c(cc1-c1cccc(/C(C)=N/OCCNC(=O)CN(C)C(=O)CN(C)C(=O)CN3CCN(CC(=O)O)CCN(CC(=O)O)CCN(CC(=O)O)CC3)c1)-c1c(c(C(=O)N3CCOCC3(C)C)nn1-c1cc(Cl)cc(Cl)c1)CO2 [Compound 42, (E)-2,2′,2″-(10-(1-(3-(1-(3,5-dichlorophenyl)-3-(3,3-dimethylmorpholine-4carbonyl)-7-methoxy-1,4-dihydrochromeno|4,3-c|pyrazol-8-yl)phenyl)-9,12-dimethyl-7,10,13-trioxo-3-oxa-2,6,9,12-tetraazatetradec-1-en-14-yl)-1,4,7,10-tetraazacyclododecane-1,4,7-triyl)triacetic acid]	10 to 100 nM
COc1cc2c(cc1-c1cccc(NC(=O)CONC(=O)CN3CCN(CC(=O)O)CCN(CC(=O)O)CCN(CC(=O)O)CC3)c1)-c1c(c(C(=O)N3CCOCC3(C)C)nn1-c1cc(Cl)cc(Cl)c1)CO2 [Compound 43]	10 to 100 nM
COc1cc2c(cc1-c1cccc(NC(=O)CON=C3CN(C(=O)CN4CCN(CC(=O)O)CCN(CC(=O)O)CCN(CC(=O)O)CC4)C3)c1)-c1c(c(C(=O)N3CCOCC3(C)C)nn1-c1cc(Cl)cc(Cl)c1)CO2 [Compound 44, 2,2′,2″-(10-(2-(3-((2-((3-(1-(3,5-dichlorophenyl)-3-(3,3-dimethylmorpholine-4carbonyl)-7-methoxy-1,4-dihydrochromeno|4,3-c|pyrazol-8-yl)phenyl)amino)-2-oxoethoxy)imino)azetidin-1-yl)-2-oxoethyl)-1,4,7,10-tetraazacyclododecane-1,4,7-triyl)triacetic acid]	< 10 nM

Source: patent US20260137819A1 (Radionetics Oncology, Inc., priority 2022, published 2026)
